Experimental findings from patent US20160166608A1, “METHODS OF TREATING CANCER WITH HIGH POTENCY LIPID-BASED PLATINUM COMPOUND FORMULATIONS ADMINISTERED INTRAPERITONEALLY” (Insmed Incorporated, priority 2005, published 2016) are described below.

The subject of this assay is L1210 cells. Nature of the assay: Survival of DBA/2 mice with L1210 cells after a single ip bolus (Example 15). Format: in vivo, mouse. To be noted: 6 mg/kg single ip bolus on day 5; L1210, DBA/2 mice. The procedure: DPPC (3.0 g) and cholesterol (1.2 g) were co-dissolved in 20 mL of ethanol. • 2.
The mice were given equivalent amounts of cisplatin containing therapeutics based on the amount of lipid instead of the amount of cisplatin.
Female DBA/2 mice (Charles Rivers) were used. Thirty (30) mice were injected with 2×10^6 L1210 cells ip on Day 0. On day 1, the mice were weighed and randomized into 3 groups of 10 mice. […] Survival was monitored. Mice were weighed daily after day 10. Mice that lost 20% or greater of their starting weight were euthanized by CO2 inhalation. The date of their death was recorded on data sheets. Median survival was calculated by Prism GraphPad.

Turning to `N.N.[Cl][Pt][Cl]` [cisplatin, cis-diamine-dichloroplatinum (II)], the “days of median survival” value was 19.5 days.
